Source: ChEMBL document CHEMBL2074140, “Identification and characterization of a prostaglandin transporter” (Science, 1995)
pKi: −log10 of the molar value.

Target: Solute carrier organic anion transporter family member 2A1 (Rattus norvegicus, UniProt Q00910)
Assay: TP_TRANSPORTER: inhibition of PGF2alpha uptake in PGT-expressing HeLa cells
Assay type: functional, cell-based

SMILES	pKi
Cc1c(C2(c3cc(Br)c(O)c(Br)c3C)OS(=O)(=O)c3ccccc32)cc(Br)c(O)c1Br [BROMCRESOL GREEN]	5.44
NS(=O)(=O)c1cc(C(=O)O)c(NCc2ccco2)cc1Cl [FUROSEMIDE]	4.33
CC1(C)C(/C=C/C=C/C=C/C=C2\N(CCCCS(=O)(=O)O)c3ccc4ccccc4c3C2(C)C)=[N+](CCCCS(=O)(=O)[O-])c2ccc3ccccc3c21 [INDOCYANINE GREEN]	4.46
O=C1OC(c2ccc(O)c(S(=O)(=O)O)c2)(c2ccc(O)c(S(=O)(=O)O)c2)c2c(Br)c(Br)c(Br)c(Br)c21 [SULFOBROMOPHTHALEIN SODIUM]	5.24
